Data on 2 compounds can be found in patent publication US4174396A, “7,10-Dimethyl-5,9-imino-4,5,8,9-tetrahydro-cyclooct[b]thiophenes and a process for obtaining it” (Laboratories Made, S.A., priority 1978, dated 1979).

The subject of series [1] is albino Swiss I.C.R. mice. Put plainly: Acute toxicity (LD50, intraperitoneal, Litchfield-Wilcoxen). The series is classed as in vivo. The settings on record: both sexes, deaths noted 48 hours after treatment. The protocol: (§1) Acute toxicity studies have been made in albino Swiss I.C.R. mice, of both sexes, of a weight of 30±2 g, kept without food for 24 hours prior to the experiment. Temperature and relative humidity of the atmosphere were kept constant. The products were administered intraperitoneally, the number of deaths having been noted 48 hours after treatment. The lethal dose (LD50) was calculated by the Litchfield-Wilcoxen test.

Series [2] relates to albino Swiss I.C.R. mice. Put plainly: Thermal analgesia, 55° C. hot-plate technique. The series is classed as in vivo. The settings on record: for Jumping time in sec. x ± S.E.M.: 50 mg/kg intraperitoneally, 30 minutes after dosing, 55° C. hot-plate, average ± standard error of the mean, control 64 ± 7.911. The protocol:
The thermal analgesic effect has been studied in albino Swiss I.C.R. mice. The 55° C. hot-plate technique has been used. Batches of 10 mice were made.
The products under study were administered intraperitoneally. After 30 minutes the mice were placed on the hot-plate and note was made of the time it took them to jump, in seconds. Batches were made of control animals injected only with distilled water.

Another series deals with white Swiss I.C.R. mice. Put plainly: Chemical analgesia, acetic acid writhing technique. It counts as in vivo. The settings on record: for No. of writhes x ± S.E.M: 25 mg/kg intraperitoneally, 0.25 ml of 1% acetic acid after 30 minutes, writhes noted 20 minutes after acetic acid, control 130 ± 7.764. As for the experimental part:
The analgesic effect has been studied in white Swiss I.C.R. mice, with the acetic acid writhing technique. Batches of 10 mice were made.
The products under study were administered intraperitoneally, and after 30 minutes 0.25 ml of 1% acetic acid were injected intraperitoneally. A batch of control animals received only the acetic acid. The number of writhes in each mouse were noted 20 minutes after the acetic acid was administered.
A general note: Writhing tests count abdominal constrictions after an irritant is injected.

Series [3] can be described thus: Acute toxicity (LD50, intraperitoneal, Litchfield-Wilcoxen). It counts as in vivo, albino Swiss I.C.R. mice. Conditions: mouse, in vivo, ip, mice, both sexes, deaths noted 48 hours after treatment. The protocol: as §1

Each structure is given as a SMILES string.

By LD50 is commonly meant the dose at which mortality reaches 50%. As to `CCC(=O)O[C@](Cc1ccccc1)(c1ccccc1)[C@H](C)CN(C)C` [Dextropropoxyphene, reference compound], the LD50 with albino Swiss I.C.R. mice [1] was found to be 140 mg/kg. In addition, the “Jumping time in sec. x ± S.E.M.” value with albino Swiss I.C.R. mice [2] came out at 164 ± 7.319 s. Further, in the series on white Swiss I.C.R. mice, the “No. of writhes x ± S.E.M” value amounted to 68.4 ± 5.258.

`CC1=CC2Cc3ccsc3C(C1)N2C` (stereo not drawn) [I, 7,10-dimethyl-5,9-imino-4,5,8,9-tetrahydrocyclooct[b]thiophene]: the 50% lethal dose (LD50) at 48 h in series [3] turned out to be 159 mg/kg. Besides, the “Jumping time in sec. x ± S.E.M.” value in the series on albino Swiss I.C.R. mice [2] stood at 114.2 ± 11.168 s. For the same compound, the “thermal analgesic activity (in words)” value with albino Swiss I.C.R. mice [2] (hot-plate, compared with dextropropoxyphene) is “shows analgesic activity, but of less potency than that of dextropropoxyphene”. Also, the “No. of writhes x ± S.E.M” value with white Swiss I.C.R. mice is given as 85.3 ± 13.915. In addition, in the series on white Swiss I.C.R. mice (No. of writhes, 25 mg/kg, versus dextropropoxyphene), the “Signif. of differences, Dextropropox.” value is given as “N.S”. In the series on white Swiss I.C.R. mice (acetic acid writhing, compared with dextropropoxyphene), the “chemical analgesic activity (in words)” value was “shows the same analgesic activity as dextropropoxyphene”.
